Data taken from patent US20250375459A1, “METHODS FOR AMELIORATING COGNITIVE IMPAIRMENT USING BILE ACID DERIVATIVES” (INTERCEPT PHARMACEUTICALS, INC., priority 2022, published 2025).

Assays:
C57 Blk/6 mice [1] = experiment: Y-maze testing of spatial memory in aged mice cohort (non-cholestatic cognitive decline); format: in vivo
Excerpt: FIG. 1 is an illustration of an aged mice cohort study plan.
FIG. 2 is a bar graph showing the results of Y-maze testing on aged mice treated with ursodeoxycholic acid (URSO), obeticholic acid (OCA), or control at 11 and 14 months, according to the cohort study plan in FIG. 1.
(§1) Cognitive impairment is a clinical issue with age-related cognitive decline being a substantial problem in society. C57 Blk/6 mice were aged to 9 months when they started either 6 months of Ursodeoxycholic acid or Obeticholic acid therapy or were left to age naturally to 15 months. Between 9 and 15 months of age mice develop progressive cognitive decline, by 15 months, with a novel arm time of one third indicating complete loss of short-term spatial memory (FIG. 2). Y-maze testing was repeated on the animals in each group at 11 and 14 months (FIG. 2; left bars and right bars respectively). […] The effect was not only behavioral.

[2] = preclinical data, given early in the disease course; cited from earlier work
C57 Blk/6 mice [3] = experiment: Immunofluorescence analysis of neurons and neural progenitors in aged mice; format: in vivo
Excerpt: FIG. 3 is a bar graph showing immunofluorescence analysis of aged mice treated with obeticholic acid (OCA), ursodeoxycholic acid (URSO), or no supplement (wild type or WT) ad libitum each at 15 months (15 mnth) vs. 9 months (9 mnth), according to the cohort study plan in FIG. 1.
as §1

[4] = longer-term experiments, aged mice

## CC[C@H]1[C@@H](O)[C@@H]2[C@H](CC[C@]3(C)[C@@H]([C@H](C)CCC(=O)O)CC[C@@H]23)[C@@]2(C)CC[C@@H](O)C[C@@H]12 [OCA, 3α,7α-dihydroxy-6α-ethyl-5β-cholan-24-oic acid]
C57 Blk/6 mice [1]; aged C57 Blk/6 mice, therapy started at 9 months, Y-maze at 11 and 14 months
  Y-maze spatial memory performance between ages 11 and 14 months: significantly improved
C57 Blk/6 mice [1]; therapy given between 9 and 15 months of age in the diet
  non-cholestatic (age-related) cognitive decline, loss of short-term spatial memory: completely abrogated
[2]
  cognitive dysfunction in cholestasis (e.g., PBC): reverse
C57 Blk/6 mice [3]; compared to both aged matched groups, 15 months
  SOX2+ neural progenitor population: significant increase
C57 Blk/6 mice [3]; immunofluorescence, supplement from 9 to 15 months, fed ad lib
  NeuN+ neuron count, neuron loss between 9 and 15 months: no significant neuron loss
C57 Blk/6 mice [3]; [4]
  neuronal precursors: significant increase
  overall neuronal cell loss: reversal
C57 Blk/6 mice [3]; wild-type (WT) mice, FIG. 3
  neurogenesis: significantly increases
  neuronal loss: slows
